Consider 2 compounds from patent US20170266174A1, “Compositions and Methods for Extending Lifespan” (COLLABORATIVE MEDICINAL DEVELOPMENT LLC, priority 2014, published 2017).

“Also recorded” adds a separate entry of the source.

The subject of experiment [1] is C. elegans. The experiment is described as follows: Lifespan analysis of C. elegans treated with SIH. Conditions: for median lifespan: 25° C., treated from adulthood onwards, control (0 μM SIH) 12 days. Type of experiment: in vivo, Caenorhabditis elegans. Here is the method:
The effects of genetic ablation of ftn-2 and ftn-1 on wild type was measured using established protocols(11, 38). For SIH treatment compound was dissolved in dimethyl sulfoxide (Sigma-Aldrich) then added to the molten NGM at 55° C. along with 50 μg/mL amplicillin (Sigma-Aldrich). Media containing equivalent vehicle alone (0.5% v/v DMSO) and ampicillin was used for comparison. SIH data was collected using the temperature sensitive-sterile strain TJ1060. All life span assays were conducted at 25° C. following adulthood.
Kaplan-Maier survival curves were generated and compared via non-parametric Log rank tests (Prism v5.0d, Graphpad Software).

In experiment [2] the test system is C. elegans. The experiment is described as follows: SEC-ICP-MS (LC-ICP-MS) chromatographic distribution of iron in SIH-treated C. elegans. Type of experiment: in vivo, Caenorhabditis elegans. Here is the method: Samples were homogenized in TBS (pH 8.0) with added proteinase inhibitors (EDTA-free, Roche), then clarified by a 15 min centrifugation at 175,000 g, 4° C. The protein concentration of the supernatant was determined via UV absorbance (Nanodrop, ThermoScientific) and equivalent protein amounts were size-excluded using a Bio SEC-5 (4.6×300 mm, 5 μm, Agilent) column with 200 mM ammonium nitrate (trace analysis grade, Sigma) pH 8.0 buffer the flow rate was 0.4 mL/min at 30° C. The eluant from the column was directly connected to the ICP-MS for elemental detection as previously described (37).

The test system of experiment [3] is lysates of young adult wild type C. elegans. Nature of the experiment: Ex vivo ROS production detected by DCF fluorescence from C. elegans lysates. Conditions: 50 μM DTPA added to lysate (10 μg) of young adult wild type. Type of experiment: biochemical, Caenorhabditis elegans. The procedure:
2′,7′-dichlorodihydrofluorescein diacetate (DCFH-DA) at 10 μM was used as a fluorescent probe for reactive oxygen species (ROS) detection in vivo using standard protocols (33). DCFH-DA enters and accumulates in the intestinal cells, where it is oxidized by several ROS (including hydroxyl radicals) to form the fluorophore DCF(34). Analysis of fluorescence rate increase was performed on samples sonicated in 1×TBS, pH 7.4 and recovered as the supernatant from a 100,000 g centrifugation at 4° C. Total protein concentration was determined by a Nanodrop spectrophotometer (Thermo Scientific). […] Fluorescence in 8 replicate wells was quantitated (Ex: 485 nm, Em: 535 nm using a 495 nm cut-off) by a FlexStation (Molecular Devices) plate reader, using 30 reads every minute for 1 h at medium PMT setting. Values from lysate-free (negative) controls were subtracted and the fluorescence data was then base line corrected. A linear regression fitted from 20-40 minutes and the slopes were normalized against 4-day old wild type and plotted (Prism v5.0d, Graphpad Software).

For `O=C(NN=Cc1ccccc1O)c1ccncc1` [SIH, salicylaldehyde isonicotinoyl hydrazone], the “dose-dependency of lifespan extension” value with C. elegans [1] (0, 100, 250 μM SIH) is “dose-dependency”. In addition, the median lifespan was 17 days in the experiment with C. elegans [1] (100 μM SIH) and 21 days in the experiment with C. elegans [1] (250 μM SIH). This compound also returned an increase in lifespan in the experiment with C. elegans [1] (control versus 250 μM SIH median lifespan) of 75%. Besides, the “Ferritin-bound iron (Peak #2) effect” value with C. elegans [2] (250 μM SIH, 10 day old, integration of peak area) was “reduced; also recorded: decreased”. Also, the “LMW-iron (Peak #3) effect in words” value in the experiment with C. elegans [2] (250 μM SIH, 10 day old, integration of peak area from triplicate data) is on record as “reduced; also recorded: lowered; also recorded: attenuated”. The “HMW-iron (Peak #1) effect” value in the experiment on C. elegans [2] (250 μM SIH, C. elegans aged to 10 days) is given as “unaffected”. Moreover, the “LMW-iron (Peak #3) normalized peak area change” value in the experiment on C. elegans [2] (250 μM SIH, C. elegans aged to 10 days, versus control) was −43%. Further, in the experiment with C. elegans [2] (SIH treatment (data not shown)), the “total soluble zinc effect” value was “unaffected”.

Turning to “diethylenetriamine penta-acetic acid [DTPA]”, in experiment [3], the “ROS production (DCF fluorescence) effect” value is “abolished; also recorded: silenced”.
